The test system of assay [1] is human cardiomyocytes. Briefly: Microelectrode array (MEA) recording of electrical activity of patterned human cardiomyocytes. It counts as cell-based.
Method: The cardiac myocytes were cultured on patterned metal MEAs (planar 10 μm electrodes, 200 μm separation, Multichannel-systems). A 60 channel amplifier (MEA1040, Multichannel-systems) was used to record electrical activity from the spontaneously beating cardiac cells. The same electrodes were also used for stimulation utilizing a stimulus generator (STG 1002, Multichannel systems). The cells were stimulated utilizing 500 mV, 1 ms wide bipolar pulses at 2 Hz. The recording medium was the same as the plating medium with the pH adjusted to 7.3 using HEPES buffer. After a 30 minute incubation period, APs were detected and recorded using built in functions of the Multichannel System software. […] The data was further analyzed using software written using Matlab and Clampfit (Axon instruments). […] The cardiomyocytes used in these experiments were derived from differentiated adult induced pluripotent stem cells purchased from Cellular Dynamics. In FIG. 27 and FIG. 28, the electrical activity of the human cardiomyocytes plated on patterned MEAs was recorded following 12 days in vitro using a Multichannel Systems 60 channel amplifier (MEA 1040, Multichannel Systems). Prior to recording, the cells were allowed to equilibrate for 15 min in the lab atmosphere at 37° C. Temperature was maintained with a TC02 temperature controller (Multichannel Systems). The cells were stimulated using a STG 1002 stimulator (Multichannel Systems) by applying 1 ms wide bipolar square pulses of 500 mV every 500 ms. The recording medium was the same as the plating medium. […] Data are represented as percentage changes compared to the control and expressed as mean +/−SEM. In FIG. 29, electrical activity of the human cardiomyocytes plated on patterned MEAs was recorded following 12 days in vitro (DIV) using a Multichannel Systems 60 channel amplifier (MEA 1040, Multichannel Systems). Prior to recording, the cells were allowed to equilibrate for 15 min in the lab atmosphere at 37° C. Temperature was maintained with a TC02 temperature controller (Multichannel Systems). The cells were stimulated using a STG 1002 stimulator (Multichannel Systems) by applying 1 ms wide bipolar square pulses of 500 mV every 500 ms. The recording medium was the same as the plating medium. Sotalol (Sigma, cat#S0278) was added to the bathing medium in increasing concentrations of 0 μM, 10 μM, 30 μM, 100 μM, and 300 μM.
The test system of assay [2] is human cardiomyocytes. Briefly: Cantilever contractile force measurement of human cardiomyocytes (AFM-like laser deflection detection). It counts as cell-based. The protocol: Spontaneous or electrical stimulation-evoked force generation of cardiac myocytes was measured based on optical detection or electrical detection of cantilever-bending. Optical detection of displacement of the end of the cantilever was based on the principle routinely used in atomic force microscopes (AFM) in which a laser beam was reflected from the cantilever to a sensor. The sensor detected the displacement of the laser beam caused by changes in the position of the cantilever. In this optical detection method, an automated electrical shutter was placed in the beam path. This placement minimized the exposure of the cells to the reflected laser light. Electrical detection of the displacement was based on piezoelectric principle that requires special design and materials for the fabrication of the cantilevers. Both detection methods enabled automation and high-throughput screening on myocyte contraction force. Peak contraction force and force-contraction velocity relationships were calculated based on the geometry of the cantilevers and the thickness of cultured cardiac myocytes (determined from immunostaining data). Compounds (such as norepinephrine, epinephrine, ouabain, verapamil, and sotalol) were applied using traditional methods to the medium and possible changes in force or force-velocity relationship were detected and analyzed using standard statistical methods.
A detection system similar to those used in atomic force microscope (AFM) system was designed for measuring deflection of the cantilevers during contraction. The entire system was assembled around an upright Olympus BX51WI electrophysiology microscope (Olympus Inc., Center Valley, PA). The detection system consisted of a class 2 red photodiode laser (Newport, Irvine, CA), a stimulation chamber, a 4-quadrant photodetector (Noah Industries, Melbourne, FL), and a computer with pClamp 10.0 data acquisition software (Molecular Devices, Union City, CA). The laser and photodetector (PD) were mounted on x-y-z-h translators (Newport, Irvine, CA), which were mounted on the underside of the microscope stage. The stimulation chamber was fabricated from 5 mm thick polycarbonate sheet. An approximately 15 mm×15 mm square chamber was milled out of the sheet and fitted with silver wires (0.015 inch diameter) for field stimulation. The silver wires were mounted parallel to each other with a separation of 15 mm. The bottom of the chamber was sealed using a 22 mm×22 mm glass coverslip. This created a transparent base through which the laser beam could easily pass. The silver wires were connected to an external pulse generator (A-M systems, Sequim, WA) capable of producing field stimulation pulses of varying intensity, frequency, and waveform. Both the pulse generator and PD were connected to an Axon Instruments series 1440 digitizer (Molecular Devices, Union City, CA) which was interfaced with the computer.
A detection system similar to that used in atomic force microscopy (AFM) was used in these experiments. Prior to recording, the cells were allowed to equilibrate for 15 min in the lab atmosphere at 37° C. Drugs were added cumulatively as follow: 0.1 μM, 0.3 μM, 1.0 μM, and 3.0 μM (norepinephrine); 0.1 μM, 1.0 μM, and 3.0 μM (epinephrine); 0.1 μM, 0.3 μM, 1.0 μM, and 3.0 μM (ouabain); and 0.3 μM, 1.0 μM, and 3.0 μM (verapamil). Washout was performed by rinsing the cells five (5) times with 1 mL of cell culture medium.

Setting [3] is: norepinephrine concentration range 0.1-3 μM, human cardiac myocytes.
Where [4] appears, read: cardiomyocytes derived from human iPSCs cultured on cantilevers (FIG. 31D).
[5] abbreviates: sotalol 0-300 μM in bathing medium, human cardiomyocytes on patterned MEAs, 12 DIV, change vs control (FIG. 29).

For `NC[C@H](O)c1ccc(O)c(O)c1` [norepinephrine], in the assay with human cardiomyocytes [1] (setting [3]), the QT interval result is “decreased”, the “minimal ISI (analogue of QT interval)” value is recorded as “decreased” and the spontaneous beating rate entry is recorded as “significantly increased”. In addition, in the assay with human cardiomyocytes [2] (setting [4]), the contractile force result is “increasing” and the contractile frequency entry is recorded as “increasing”. Besides, the peak contraction force result with human cardiomyocytes [2] (norepinephrine concentration range 0.1-3 μM, human cardiac myocytes on cantilevers, 14 days in vitro (FIG. 30A)) is on record as “increased”.
With `COc1ccc(CCN(C)CCC[C@@](C#N)(c2ccc(OC)c(OC)c2)C(C)C)cc1OC` [verapamil], the “peak force versus concentration (μM)” value in the assay with human cardiomyocytes [2] (human cardiomyocytes following administration of verapamil (FIG. 12C)) was “decrease”. The contraction peak force result in the assay with human cardiomyocytes [2] (verapamil 0.3, 1.0, 3.0 μM cumulative, human cardiomyocytes on cantilevers, 14 days in vitro (FIG. 30D)) is “concentration dependently decreased”.
Consider `CC(C)NCC(O)c1ccc(NS(C)(=O)=O)cc1` (centres unmarked) [sotalol], for which, in the assay on human cardiomyocytes [1] (setting [5]), the QT intervals entry was “significantly increased” and the “mISI (minimum interspike interval)” value was “significantly increased”. The conduction velocity entry with human cardiomyocytes [1] (sotalol concentrations above 100 μM, human cardiomyocytes on patterned MEAs, 12 DIV) is given as “decreased”.

The values are drawn from patent US12607620B2, “Devices and systems for mimicking heart function” (UNIVERSITY OF CENTRAL FLORIDA RESEARCH FOUNDATION, INC., priority 2013, dated 2026).
